Experimental data as given in ChEMBL document CHEMBL5113527, “First-in-Class Hydrazide-Based HDAC6 Selective Inhibitor with Potent Oral Anti-Inflammatory Activity by Attenuating NLRP3 Inflammasome Activation” (J Med Chem, 2022).
Active and inactive are the calls of the source. The rule behind the calls is not given here.

How the values were obtained:
Homo sapiens = species on record: Homo sapiens; test: Selectivity index, ratio of IC50 for recombinant HDAC1(unknown origin) to IC50 for full length recombinant human HDAC6
Histone deacetylase 1 [1] = target: T1, Histone deacetylase 1 (Homo sapiens, UniProt Q13547); test: Inhibition of recombinant HDAC1 (unknown origin) using Boc-Lys(acetyl)-AMC as substrate preincubated for 1 hr followed by substrate addition and measured after 2 hrs by fluorescence based microplate reader analysis
T1 sequence (Q13547 whole entry): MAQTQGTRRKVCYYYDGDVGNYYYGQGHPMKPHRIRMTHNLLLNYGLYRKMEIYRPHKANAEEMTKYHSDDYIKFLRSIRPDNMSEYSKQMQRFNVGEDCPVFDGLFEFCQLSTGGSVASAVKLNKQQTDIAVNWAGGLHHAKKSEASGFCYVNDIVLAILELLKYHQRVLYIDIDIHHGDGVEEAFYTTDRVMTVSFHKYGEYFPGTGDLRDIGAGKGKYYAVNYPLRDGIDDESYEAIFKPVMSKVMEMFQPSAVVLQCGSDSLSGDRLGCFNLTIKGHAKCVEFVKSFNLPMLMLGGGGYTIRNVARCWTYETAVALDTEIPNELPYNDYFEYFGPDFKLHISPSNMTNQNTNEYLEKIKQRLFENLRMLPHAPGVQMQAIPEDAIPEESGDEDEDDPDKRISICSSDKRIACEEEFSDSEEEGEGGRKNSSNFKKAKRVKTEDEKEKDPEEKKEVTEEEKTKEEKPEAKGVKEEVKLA

Histone deacetylase 2 [2] = target: T2, Histone deacetylase 2 (Homo sapiens, UniProt Q92769); test: Inhibition of recombinant HDAC2 (unknown origin) using Boc-Lys(acetyl)-AMC as substrate preincubated for 1 hr followed by substrate addition and measured after 2 hrs by fluorescence based microplate reader analysis
T2 sequence (Q92769 whole entry): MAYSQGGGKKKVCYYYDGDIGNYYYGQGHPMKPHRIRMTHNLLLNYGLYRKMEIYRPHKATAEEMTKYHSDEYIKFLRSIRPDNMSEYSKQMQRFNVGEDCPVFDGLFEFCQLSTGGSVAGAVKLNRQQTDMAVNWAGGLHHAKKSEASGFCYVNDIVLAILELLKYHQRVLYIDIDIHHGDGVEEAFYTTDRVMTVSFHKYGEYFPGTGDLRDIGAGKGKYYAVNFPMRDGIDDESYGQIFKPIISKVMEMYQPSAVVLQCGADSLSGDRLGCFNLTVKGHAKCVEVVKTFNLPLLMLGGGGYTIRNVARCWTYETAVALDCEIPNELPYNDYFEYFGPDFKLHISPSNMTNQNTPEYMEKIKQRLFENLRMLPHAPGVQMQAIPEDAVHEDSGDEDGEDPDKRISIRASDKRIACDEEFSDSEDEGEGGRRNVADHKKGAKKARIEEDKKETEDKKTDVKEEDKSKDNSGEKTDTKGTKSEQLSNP

Histone deacetylase 3 [3] = target: T3, Histone deacetylase 3 (Homo sapiens, UniProt O15379); test: Inhibition of recombinant HDAC3 (unknown origin) using Boc-Lys(acetyl)-AMC as substrate preincubated for 1 hr followed by substrate addition and measured after 2 hrs by fluorescence based microplate reader analysis
T3 sequence (O15379 whole entry): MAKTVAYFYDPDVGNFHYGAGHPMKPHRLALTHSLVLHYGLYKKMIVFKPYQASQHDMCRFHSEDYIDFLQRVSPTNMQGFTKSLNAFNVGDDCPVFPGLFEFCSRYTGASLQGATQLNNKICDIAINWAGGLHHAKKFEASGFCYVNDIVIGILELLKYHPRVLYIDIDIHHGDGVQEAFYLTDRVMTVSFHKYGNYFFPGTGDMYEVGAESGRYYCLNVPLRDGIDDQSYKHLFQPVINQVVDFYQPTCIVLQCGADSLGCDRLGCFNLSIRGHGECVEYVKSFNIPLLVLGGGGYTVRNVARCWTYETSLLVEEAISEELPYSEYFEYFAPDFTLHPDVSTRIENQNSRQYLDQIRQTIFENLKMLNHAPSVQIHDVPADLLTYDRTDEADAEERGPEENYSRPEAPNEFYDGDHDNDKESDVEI

[4] = target: T4, Protein deacetylase HDAC6 (Homo sapiens, UniProt Q9UBN7); test: Inhibition of recombinant HDAC6 (unknown origin) using Boc-Lys(acetyl)-AMC as substrate preincubated for 1 hr followed by substrate addition and measured after 2 hrs by fluorescence based microplate reader analysis
T4 sequence (Q9UBN7 whole entry): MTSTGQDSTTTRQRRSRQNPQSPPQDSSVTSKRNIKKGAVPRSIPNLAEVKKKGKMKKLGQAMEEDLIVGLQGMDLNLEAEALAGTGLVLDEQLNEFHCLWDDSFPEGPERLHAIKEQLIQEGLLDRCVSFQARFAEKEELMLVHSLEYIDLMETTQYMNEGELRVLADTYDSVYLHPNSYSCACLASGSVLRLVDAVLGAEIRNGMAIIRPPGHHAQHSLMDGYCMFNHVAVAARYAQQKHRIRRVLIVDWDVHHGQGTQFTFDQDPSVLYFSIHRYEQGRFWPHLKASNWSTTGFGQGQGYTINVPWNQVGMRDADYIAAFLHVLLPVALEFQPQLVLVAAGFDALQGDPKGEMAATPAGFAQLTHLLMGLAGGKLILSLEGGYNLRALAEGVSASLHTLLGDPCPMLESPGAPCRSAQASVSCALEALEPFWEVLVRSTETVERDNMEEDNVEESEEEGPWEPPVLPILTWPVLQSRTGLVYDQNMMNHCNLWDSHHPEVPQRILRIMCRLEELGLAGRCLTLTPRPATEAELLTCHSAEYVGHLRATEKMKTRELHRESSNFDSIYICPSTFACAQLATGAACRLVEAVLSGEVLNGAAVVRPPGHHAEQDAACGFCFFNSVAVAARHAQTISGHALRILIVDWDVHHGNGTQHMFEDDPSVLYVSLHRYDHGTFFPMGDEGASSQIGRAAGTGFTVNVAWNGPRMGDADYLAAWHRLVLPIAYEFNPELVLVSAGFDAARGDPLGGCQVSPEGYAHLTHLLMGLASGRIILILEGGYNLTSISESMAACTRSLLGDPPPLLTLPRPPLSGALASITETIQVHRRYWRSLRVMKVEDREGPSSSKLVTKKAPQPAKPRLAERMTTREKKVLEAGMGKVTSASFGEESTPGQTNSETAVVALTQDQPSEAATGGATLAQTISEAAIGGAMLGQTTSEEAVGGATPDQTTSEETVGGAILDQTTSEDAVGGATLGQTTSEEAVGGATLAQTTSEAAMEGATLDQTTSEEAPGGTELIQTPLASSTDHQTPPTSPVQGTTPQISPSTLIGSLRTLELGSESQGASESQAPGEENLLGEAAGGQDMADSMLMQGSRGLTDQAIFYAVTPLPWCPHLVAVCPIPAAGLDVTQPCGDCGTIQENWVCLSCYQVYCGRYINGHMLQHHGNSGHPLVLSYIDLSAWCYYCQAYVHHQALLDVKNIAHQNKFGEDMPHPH

[5] = Inhibition of HDAC11(unknown origin) preincubated for 1 hr followed by substrate addition and measured after 2 hrs by fluorescence based microplate reader analysis; set-up: species or system Homo sapiens
[6] = Cmax in CD-1 mouse at 3 mg/kg, iv measured after 0.083 to 24 hrs by LC-MS/MS analysis; type: ADME, organism-based; set-up: time upper 24 hrs, time lower 0.083 hrs, dose 3 mg/kg, route iv; details: in vivo
[7] = Cmax in CD-1 mouse at 30 mg/kg, po measured after 0.083 to 24 hrs by LC-MS/MS analysis; type: ADME, organism-based; set-up: time upper 24 hrs, time lower 0.083 hrs, dose 30 mg/kg, route po; details: in vivo
[8] = AUC(0 to infinity) in CD-1 mouse at 3 mg/kg, iv measured after 0.083 to 24 hrs by LC-MS/MS analysis; type: ADME, organism-based; set-up: dose 3 mg/kg, time upper 24 hrs, time lower 0.083 hrs, route iv; details: in vivo
[9] = AUC(0 to infinity) in CD-1 mouse at 30 mg/kg, po measured after 0.083 to 24 hrs by LC-MS/MS analysis; type: ADME, organism-based; set-up: dose 30 mg/kg, time upper 24 hrs, time lower 0.083 hrs, route po; details: in vivo
J774.A1 = test: Inhibition of HDAC6/dynein interaction in mouse J774.A1 cells measured after 8 hrs by co-immunoprecipitation based Western blotting analysis; type: cell-based
Histone deacetylase 1 [10] = target: T1, Histone deacetylase 1; test: Inhibition of HDAC1 (unknown origin)
Histone deacetylase 3 [11] = target: T3, Histone deacetylase 3; test: Inhibition of HDAC3 (unknown origin)
Histone deacetylase 2 [12] = target: T2, Histone deacetylase 2; test: Inhibition of HDAC2 (unknown origin)
[13] = Cmax in CD-1 mouse at 5 mg/kg, iv measured after 0.083 to 24 hrs by LC-MS/MS analysis; type: ADME, organism-based; set-up: dose 5 mg/kg, time 0.083-24 hrs, route iv; details: in vivo
[14] = Half life in CD-1 mouse at 5 mg/kg, iv measured after 0.083 to 24 hrs by LC-MS/MS analysis; type: ADME, organism-based; details: in vivo, time 0.083-24 hrs
[15] = AUC(0 to infinity) in CD-1 mouse at 5 mg/kg, iv measured after 0.083 to 24 hrs by LC-MS/MS analysis; type: ADME, organism-based; set-up: dose 5 mg/kg, time upper 24 hrs, time lower 0.083 hrs, route iv; details: in vivo

Structure (SMILES) | Ratio IC50 (Homo sapiens) | IC50 (Histone deacetylase 1 [1]) [nM] | IC50 (Histone deacetylase 2 [2]) [nM] | IC50 (Histone deacetylase 3 [3]) [nM] | IC50 [4] [nM] | further results
CCNNC(=O)c1ccc(CN2c3ccccc3Sc3cccnc32)cc1 | 65 | 3990 | > 5000 | 1770 | 61 | 
CCNNC(=O)c1ccc(Cn2ccc3cc(C(=O)c4ccc(OC)cc4)ccc32)cc1 | 1.2 | 543 | 913 | 217 | 449 | 
CCNNC(=O)c1ccc(CN2c3ccccc3C=Cc3nc(C)nc(C)c32)cc1 | 48 | 2260 | > 5000 | 1160 | 47 | 
CN1CCc2c(c3ccccc3n2Cc2ccc(C(=O)NO)cc2)C1 [TUBASTATIN A] |  |  |  |  |  | IC50 [5]: > 5000 nM; Cmax [6]: 1240 ng/mL; Cmax [7]: 135 ng/mL; AUC [8]: 227 ng·h/mL; AUC [9]: 134 ng·h/mL; inhibition (J774.A1): Active
CCNNC(=O)c1ccc(CNC(=O)Nc2cccc3cccnc23)cc1 |  | 3 | 6 | 0.9 | 34 | 
CCNNC(=O)c1ccc(CN2c3ccccc3CCc3ccccc32)cc1 | > 20 | > 5000 | > 5000 | 3950 | 250 | 
O=C(CS)NCCCCNc1c(Cl)cc(Cl)c2cccnc12 |  | 6680 |  |  |  | IC50 (Histone deacetylase 1 [10]): 6680 nM
CCNNC(=O)c1ccc(CN2c3ccccc3C=Cc3ccccc32)cc1 | 54 | 2300 | > 5000 | 1610 | 42 | 
CCCCN(Cc1ccc(C(=O)NO)cc1)C(=O)Nc1ccccc1 [NEXTURASTAT A] |  |  |  |  |  | IC50 (Histone deacetylase 3 [11]): 6080 nM
O=C(NO)c1ccc(CC(=O)N(CCO)c2ccccc2)cc1 |  |  |  |  |  | IC50 (Histone deacetylase 1 [10]): 842 nM; IC50 (Histone deacetylase 2 [12]): 2210 nM; IC50 (Histone deacetylase 3 [11]): 2080 nM
CCCNNC(=O)c1ccc(CNC(=O)c2ccccc2)cc1 | 0.002 | 13 |  |  | > 5000 | 
CNNC(=O)c1ccc(CNC(=O)c2ccccc2)cc1 | 5.2 | 4620 |  |  | 878 | 
CCNNC(=O)c1ccc(Cn2c3ccccc3c3ccccc32)cc1 | > 14 | > 5000 | > 5000 | 2330 | 361 | 
CCNNC(=O)c1ccc(NC(=O)Nc2cccc3cccnc23)cc1 | 0.9 | 1430 | 233 | 446 | 1530 | 
CCCCN(Cc1ccc(C(=O)NNCC)cc1)C(=O)Nc1ccccc1 | 2.5 | 341 | 78 | 191 | 132 | 
O=C(CCCCCCNC(=O)c1cnc(N(c2ccccc2)c2ccccc2)nc1)NO [RICOLINOSTAT] |  |  |  |  |  | IC50 [5]: > 5000 nM; Cmax [13]: 372 ng/mL; half-life [14]: 2.62 h; AUC(0-inf) [15]: 342 ng·h/mL
CCNNC(=O)c1ccc(CN2c3ccccc3C=Cc3ccc(F)cc32)cc1 | 68 | 2520 | 4120 | 563 | 37 | 
CCNNC(=O)c1ccc(Cn2c3ccccc3c3ccncc32)cc1 | > 68 | > 5000 | 4380 | > 5000 | 73 | 
